Reference: BindingDB's records for doi:10.7270/Q21R6NZ6 (Emory University, 2008)

Biological target: Mothers against decapentaplegic homolog 3 (Homo sapiens, UniProt P84022)
Test: Smad3 binding inhibitors, lysate ELISA, dose response, cell lysate, secondary confirmation, chemiluminescent ELISA, HEK293 lysate (AID 1058)

Chain of Mothers against decapentaplegic homolog 3 (P84022 whole entry): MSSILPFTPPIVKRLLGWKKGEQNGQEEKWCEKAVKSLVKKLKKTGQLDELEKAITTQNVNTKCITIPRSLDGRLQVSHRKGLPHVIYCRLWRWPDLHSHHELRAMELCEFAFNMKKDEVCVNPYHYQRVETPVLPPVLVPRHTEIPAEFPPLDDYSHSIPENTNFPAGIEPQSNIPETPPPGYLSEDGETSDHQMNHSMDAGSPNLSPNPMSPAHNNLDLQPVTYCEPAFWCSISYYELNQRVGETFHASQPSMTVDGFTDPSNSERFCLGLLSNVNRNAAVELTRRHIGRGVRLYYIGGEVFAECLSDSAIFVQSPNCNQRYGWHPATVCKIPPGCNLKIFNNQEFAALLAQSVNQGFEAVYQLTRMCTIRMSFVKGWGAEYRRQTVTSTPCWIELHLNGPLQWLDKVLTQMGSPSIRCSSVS

IC50: > 50 µM
SMILES: COC(=O)c1ccccc1C1c2ccc(O)c(O)c2OC2C(=O)C(=O)C=CC21 (stereo unspecified) [2-(3,4,5-trihydroxy-6-keto-8a,9-dihydroxanthen-9-yl)benzoic acid methyl ester]
